# Source: US9949979B2, “Use of inhibitors of the activity or function of PI3K” (NOVARTIS AG, priority 2011, dated 2018)
# Test system: TLR9
# Test: TLR9-induced IL-6 in murine splenocytes (CpG1826, ELISA)
# Assay type: cell-based, C57BL/6 mice
# Details: Mus musculus, Splenocyte; read-out: TLR9-ligand induced IL-6 in murine splenocytes IC50
# Experimental: 2.2 Determination of TLR9-Induced IL-6 in Murine Splenocytes
# Spleens were dissected from C57BL/6 mice immediately following euthanasia. Excess fat was trimmed from the spleens prior to mashing the spleen through a […] cell strainer using a plunger from a 5 ml syringe. A single cell suspension was prepared and the volume was adjusted to 15 ml in a 50 ml Falcon tube using cold PBS. Cells were centrifuged at 1500 rpm for 5 minutes at 4° C. degrees prior to removal of supernatant and re-suspension in 5 ml of red blood cell lysis buffer per spleen and incubation for 5 minutes at room temperature. Ice cold PBS (30 ml) was added to the cells prior to centrifugation at 1500 rpm for 5 minutes at 4° C. The supernatant was removed and the cells were washed twice with 40 ml of murine splenocyte culture media (MSCM). […] Cells were re-suspended in 10-20 ml of MSCM and counted using a Countess cell counter. […]
# After overnight culture, cells were transferred to 96-well V-bottomed plates and centrifuged at 2000 rpm for 5 minutes at room temperature. Subsequently 150 μl of each culture supernatant was transferred to 96-well flat-bottomed plates and […] were measured using commercially available mouse IL-6 sandwich ELISA kit (R&D systems). […] IL-6 levels were measured using a SpectraMax 190 Plate Reader (450 nm) and analyzed using SoftMax Pro and GraphPad Prism software.
smiles,measurement,value
"CCC(=O)N1CC[C@H](Nc2ncnc3c2CN(c2cnc(OC)c(C(F)(F)F)c2)CC3)C1 [Example 67, 1-{(S)-3-[6-(6-Methoxy-5-trifluoromethyl-pyridin-3-yl)-5,6,7,8-tetrahydro-pyrido[4,3-d]pyrimidin-4-ylamino]-pyrrolidin-1-yl}-propan-1-one]",IC50,96 nM
